Measured values taken from the NIST ThermoML archive (doi:10.1021/je800243y).
± gives the expanded uncertainty stated by the source.

Test: molar heat capacity at constant pressure
Details: 101.33 kPa, Crystal, Large sample (1 g) DSC

SMILES	molar heat capacity at constant pressure (298.15 K) [J/K/mol]	molar heat capacity at constant pressure (303.15 K) [J/K/mol]	molar heat capacity at constant pressure (308.15 K) [J/K/mol]	molar heat capacity at constant pressure (313.15 K) [J/K/mol]	molar heat capacity at constant pressure (318.15 K) [J/K/mol]	molar heat capacity at constant pressure (323.15 K) [J/K/mol]	molar heat capacity at constant pressure (328.15 K) [J/K/mol]	molar heat capacity at constant pressure (333.15 K) [J/K/mol]	molar heat capacity at constant pressure (338.15 K) [J/K/mol]	molar heat capacity at constant pressure (343.15 K) [J/K/mol]	molar heat capacity at constant pressure (348.15 K) [J/K/mol]	molar heat capacity at constant pressure (353.15 K) [J/K/mol]	molar heat capacity at constant pressure (358.15 K) [J/K/mol]	molar heat capacity at constant pressure (363.15 K) [J/K/mol]	molar heat capacity at constant pressure (368.15 K) [J/K/mol]
O=c1[nH]c(=O)n([C@H]2C[C@H](O)[C@@H](CO)O2)cc1I [5-iodo-2'-deoxyuridine]	285.34 ± 5.7	287.61 ± 5.8	289.88 ± 5.8	292.15 ± 5.8	294.43 ± 5.9	296.69 ± 5.9	298.96 ± 6	301.22 ± 6	303.48 ± 6.1	305.76 ± 6.1	308.02 ± 6.2	310.3 ± 6.2	312.55 ± 6.2	314.82 ± 6.3	317.09 ± 6.3
O=c1[nH]c(=O)n([C@@H]2O[C@H](CO)[C@@H](O)[C@H]2O)cc1Br [5-bromouridine]	305.69 ± 6.1	306.16 ± 6.1	306.64 ± 6.1	307.11 ± 6.1	307.58 ± 6.2	308.05 ± 6.2	308.52 ± 6.2	308.99 ± 6.2	309.47 ± 6.2	309.94 ± 6.2	310.41 ± 6.2	310.88 ± 6.2	311.35 ± 6.2	311.82 ± 6.2	312.29 ± 6.2
O=c1[nH]c(=O)n([C@@H]2O[C@H](CO)[C@@H](O)[C@H]2O)cc1I [2,4-dihdroxy-5-iodo-1-β-D-ribofurnosylpyrimidine]	337.43 ± 6.8	338.14 ± 6.8	338.86 ± 6.8	339.57 ± 6.8	340.29 ± 6.8	341 ± 6.8	341.72 ± 6.8	342.43 ± 6.8	343.15 ± 6.9	343.86 ± 6.9	344.58 ± 6.9	345.29 ± 6.9	346.01 ± 6.9	346.72 ± 6.9	347.44 ± 7
O=c1ccn([C@H]2C[C@H](O)[C@@H](CO)O2)c(=O)[nH]1 [2'-deoxyuridine]	263.41 ± 5.3	266.16 ± 5.3	268.9 ± 5.4	271.65 ± 5.4	274.39 ± 5.5	277.14 ± 5.5	279.89 ± 5.6	282.63 ± 5.7	285.38 ± 5.7	288.12 ± 5.8	290.86 ± 5.8	293.6 ± 5.9	296.36 ± 5.9	299.1 ± 6	301.84 ± 6
Cc1cn([C@H]2C[C@H](O)[C@@H](CO)O2)c(=O)[nH]c1=O [thymidine]	276.7 ± 5.5	278.84 ± 5.6	280.97 ± 5.6	283.12 ± 5.7	285.25 ± 5.7	287.4 ± 5.8	289.53 ± 5.8	291.68 ± 5.8	293.81 ± 5.9	295.95 ± 5.9	298.09 ± 6	300.23 ± 6	302.37 ± 6	304.51 ± 6.1	306.65 ± 6.1
O=c1[nH]c(=O)n([C@H]2C[C@H](O)[C@@H](CO)O2)cc1Br [5-bromo-2'-deoxyuridine]	260.65 ± 5.2	263.37 ± 5.3	266.08 ± 5.3	268.8 ± 5.4	271.51 ± 5.4	274.23 ± 5.5	276.94 ± 5.5	279.66 ± 5.6	282.38 ± 5.7	285.09 ± 5.7	287.81 ± 5.8	290.52 ± 5.8	293.24 ± 5.9	295.95 ± 5.9	298.66 ± 6
